How the values were obtained:
[1] = intracarotid; cited from earlier work
New Zealand rabbits = test: Intracarotid propofol (0.33% and 1%) before, during and after flow arrest: duration of electrocerebral silence; type: in vivo, rabbit
Method: The study was conducted on eight New Zealand rabbits that were subjected to six drug challenges. […] The flow arrest was produced by intravenous injection of esmolol (10 mg) and adenosine (30 mg).

[2] = co-administration of intracarotid verapamil; n=14, P=0.04

Structure (SMILES): CCCC(C)C1(CC)C(=O)NC(=S)NC1=O (stereo not drawn) [pentothal]
- loading dose of 1% pentothal [1]: about 0.3±0.1 ml

Structure (SMILES): CC(C)c1cccc(C(C)C)c1O [propofol]
- increase of the duration of EEG silence by changing concentration (New Zealand rabbits; 0.33% vs 1% (1 or 3 mg) intracarotid, P=0.02, NS on post-hoc testing, n=8): 2-4 folds
- increase of the duration of EEG silence by flow arrest (New Zealand rabbits; intracarotid 1 or 3 mg during esmolol/adenosine flow arrest, n=8, P<0.0001): 15-20 folds
- time to complete recovery of EEG activity and systemic changes (blood pressure) (rabbits; after last intracarotid injection): ≤ 10 min
- EEG silence (rabbits; intracarotid, volume of 0.4 ml with 0.5% propofol): produced EEG silence in all cases

Structure (SMILES): COc1ccc(CCN(C)CCCC(C#N)(c2ccc(OC)c(OC)c2)C(C)C)cc1OC (stereo not drawn) [verapamil]
- doses of intracarotid propofol required to produce 10 minutes of EEG silence [2]: significantly increased

Reference: US20060047261A1, “Intra-arterial catheter for drug delivery” (priority 2004, published 2006)
